We go through 76 compounds from publication PMC12040169 (PLOS Biology, 2025).

The data set is described as follows: in vitro. To be noted: human, hela cells, % viability.

For the compound `CCCC(C)N(C)C(=O)CCc1c(C)nc(-c2cccnc2)[nH]c1=O` (stereo not shown) [CBK304965], the viability (as a rule, a read-out of living cells in per cent, often relative to untreated cells) at 28.5 h, 10 µM came to 106%. Same read-out and setting: the value for `O=C(Nc1ccc(-c2nnc(-c3ccco3)o2)cc1)C(c1ccccc1)c1ccccc1` [CBK263452] was 106%; that for `COc1cc(C(=O)NCc2c(-c3ccccc3)noc2C)cc(OC)c1OC` [CBK144097] was 93.9%; that for `O=C(Nc1ccc(F)c(F)c1)N[C@H]1CC[C@@]2(c3cccc(Br)c3)CCN(Cc3ccccc3)[C@H]2C1` [CBK047515] was 107%.

For the compound `CCCOc1ncccc1O` [CBK001459], the viability at 28.5 h, 10 µM is 89.7%. Same read-out and setting: under `O=C(NCC(=O)N1CCCC1c1cccs1)c1cccc(Br)c1` (stereo not shown) [CBK305655] stands 99.2%; under `CC(C)(C)OC(=O)NCc1ccc(CNCc2cc(F)cc(F)c2)cc1` [CBK056707], 107%; under `Cc1n[nH]c(C)c1Sc1ccccc1/N=C/c1ccc([N+](=O)[O-])cc1` [CBK262045], 87.4%.

`COc1ccc(CN2C(=O)COC[C@@H]2[C@H](O)c2ccc(NC(C)=O)cc2)cc1` [CBK289674]: the viability at 28.5 h, 10 µM was 95.6%.

Turning to `CC(C)(C)c1ccc(C(=O)CSCC(=O)Nc2ccc3ccccc3c2)cc1` [CBK268394], the viability at 28.5 h, 10 µM stood at 85.2%. With `O=C(Cc1ccsc1)N1CCC[C@@H]1Cn1c(=O)oc2ccccc21` [CBK284530], the viability at 28.5 h, 10 µM stood at 91.2%. `Cc1ccccc1Cn1nc(C)c(NC(=O)c2nc3n(n2)C(C(F)F)CC(C)N3)c1C` (stereo not shown) [CBK267633]: the viability at 28.5 h, 10 µM is 92.6%. Regarding `Cc1nc(NC(=O)C2Cc3ccccc3S2)sc1-c1n[nH]c(=S)n1C` (stereo not shown) [CBK295337], the viability at 28.5 h, 10 µM turned out to be 98%.

For `CN(CCC#N)C(=O)c1cc2cc(Cl)ccc2[nH]1` [CBK287956], the viability at 28.5 h, 10 µM came to 98%. Same read-out and setting: under `O=C(CSCc1ccccc1)Nc1ccc(S(=O)(=O)N2CCOCC2)cc1` [CBK087885] stands 93.3%. The same measure, in the same setting: under `C=C(C)Cn1c(SCC(C)C)nnc1-c1ccccc1Cl` [CBK200078] stands 92.4%; under `CCN(CC)CCN1CCN(c2cncc(-c3ccc(F)cc3F)n2)CC1` [CBK065668], 107%; under `O=C(N/N=C\c1ccc(-c2ccc(Cl)c(Cl)c2)o1)C1COc2cc3ccccc3cc2O1` (stereo not shown) [CBK262834], 99%. On the same count and under the same terms, under `O=S(=O)(Cc1ccccc1)c1cc2c(N3CCNCC3)nccc2s1` [CBK200017C] stands 91.9%; under `CC1CCN(Cn2nc(COc3ccccc3)n(-c3ccccc3)c2=S)CC1` [CBK264247], 97.3%. On to `COc1cc(/C=C2/NC(=O)N(c3cccc(Cl)c3)C2=O)ccc1OCC(=O)Nc1ccc(F)cc1` [CBK265691], for which the viability at 28.5 h, 10 µM turned out to be 93%. Regarding `Cc1c(C(=O)N(C)Cc2cccn2C)[nH]c2ccccc12` [CBK283270], the viability at 28.5 h, 10 µM was found to be 94.6%. `O=C(NCc1cccs1)C1CCCN1c1nc(O)cc(C(F)(F)F)n1` (stereo not shown) [CBK004299]: the viability at 28.5 h, 10 µM is 91.3%. The same measure, in the same setting: under `O=c1[nH]c2ccccc2n1C1CCN(S(=O)(=O)c2cccs2)CC1` [CBK149689] stands 98.4%; under `O=C(Nc1cccnc1)N1CCN(CCc2ccccc2)CC1` [CBK158937], 95.4%. Still for that read-out and setting: the value for `Cc1cnc2[nH]c(C3CCCN(C(=O)c4cccnc4)C3)cc2c1` (stereo not shown) [CBK285168] was 86.1%.

Consider `CCOC(=O)c1c(NC(=O)c2nc3ncccn3n2)sc(C)c1C` [CBK267630], for which the viability at 28.5 h, 10 µM turned out to be 114%.

Turning to `Cc1noc([C@@H]2C[C@H](NC(=O)c3ccc(C#N)cc3)CN2C)n1` [CBK288872], the viability at 28.5 h, 10 µM worked out at 97.6%. Consider `Cn1c2ccccc2c2nnc(SCCCC(=O)c3ccc4c(c3)OCCO4)nc21` [CBK268750], for which the viability at 28.5 h, 10 µM stood at 97.5%. In the case of `O=C(Cc1cccc2ccccc12)NC(=S)Nc1ccc(S(=O)(=O)N2CCCCC2)cc1` [CBK266283], the viability at 28.5 h, 10 µM was found to be 106%. Take `O=C1NC2(CCC(=O)N(Cc3ccccc3)CC2)Nc2ccccc21` (stereo not shown) [CBK284439]: the viability at 28.5 h, 10 µM was 89.8%. Still for that read-out and setting: under `COc1ccc(CCC(=O)N2CCCC(c3nccnc3-c3cccc(C)c3)C2)cc1` (stereo not shown) [CBK286510] stands 99.6%; under `O=C(c1ccc(N2CC=CCC2)nc1)N1CCC(N2CCOCC2)CC1` [CBK307334], 80%.

As to `FC(F)(F)c1ccc(CN2CCC(Oc3nccnc3OC3CCCCC3)CC2)cc1` [CBK082859T], the viability at 28.5 h, 10 µM is 92.1%. In the case of `COc1cc2c(cc1OC)CN(CC(N)=O)CC2` [CBK126391], the viability at 28.5 h, 10 µM worked out at 86.8%. On the same count and under the same terms, the value for `O=c1[nH]ccn1CCNc1cc(-c2ccccc2Oc2ccccc2)ncn1` [CBK036966] was 90.4%. Same read-out and setting: under `Cn1c(=O)n(C)c2cc(NC(=O)C(F)(F)F)ccc21` [CBK021127] stands 80.9%; under `CCC(CO)Nc1cncc(-c2ccc(C(N)=O)cc2)n1` (stereo not shown) [CBK065577], 100%; under `Cc1cc(NC(=O)C(=O)NCCN2CCN(S(C)(=O)=O)CC2)ccc1Br` [CBK265401], 85.4%. The same measure, in the same setting: under `CCn1cc(CN2CCCN(C(=O)c3ccc(Cl)cn3)CC2)cn1` [CBK304760] stands 84.3%; under `c1cncc(CN2CCC(Oc3cncc(OCC4COc5ccccc5O4)n3)C2)c1` (stereo not shown) [CBK084365], 96.5%; under `Cc1cc(NS(=O)(=O)c2ccc(Nc3nc(-c4cccs4)cs3)cc2)no1` [CBK262504], 101%. As to `Cc1cc(NC(=O)c2ccc(C(C)(C)C)cc2)nc2c1c(=O)oc1ccccc12` [CBK291200], the viability at 28.5 h, 10 µM came out at 120%. Same read-out and setting: under `COC(=O)c1ccc(NC(=O)CN(c2ccc(F)c(Cl)c2)S(C)(=O)=O)cc1` [CBK267657] stands 88.3%. Still for that read-out and setting: the value for `CCC(c1nc2ccccc2c(=O)n1CCCn1ccnc1)N1C(=O)c2ccccc2C1=O` (stereo not shown) [CBK268560] was 107%. Same read-out and setting: the value for `COC(=O)c1sccc1OCc1nnc(-c2ccc(Cl)c(Cl)c2)o1` [CBK067742] was 96.5%; that for `CC(=O)Nc1cccc(Oc2nccnc2-c2cc3ccccc3s2)c1` [CBK106784] was 101%.

On to `CC(=O)Nc1ccccc1NC(=O)CN(C)S(=O)(=O)c1ccc(Cl)cc1` [CBK267373], for which the viability at 28.5 h, 10 µM turned out to be 93.2%.

`O=C(O)COc1cccc2nsnc12` [CBK019749]: the viability at 28.5 h, 10 µM worked out at 95.1%. Still for that read-out and setting: the value for `O=C(CSc1nnc(-c2ccccc2)n1-c1ccccc1)N/N=C/c1coc2ccccc2c1=O` [CBK262791] was 97.6%; that for `COC(=O)c1ccc(N2CCOCC2)c(NC(=O)c2cccnc2)c1` [CBK270257] was 95.9%. On the same count and under the same terms, under `O=C(Nc1ccccc1)c1cccc(S(=O)(=O)NCc2ccncc2)c1` [CBK269980] stands 102%. For the compound `CN1CCN(S(=O)(=O)c2ccc3c(c2)oc(=O)c2cc(S(=O)(=O)N4CCN(C)CC4)ccc23)CC1` [CBK267206], the viability at 28.5 h, 10 µM stood at 85%. Turning to `CCNC(=O)N[C@H]1CC[C@]2(C)CCC([C@H](C)C(=O)N3CCCCC3)[C@H](O)[C@H]2[C@@H]1C` (stereo partly shown) [CBK289455], the viability at 28.5 h, 10 µM stood at 84.7%. In the case of `N#Cc1ccc(-n2nc(-c3ccccc3)c3ccccc3c2=O)c([N+](=O)[O-])c1` [CBK132567], the viability at 28.5 h, 10 µM was found to be 96.6%. Same read-out and setting: under `CC(Sc1nc2cc(Cl)ccc2c(=O)n1CC1CCCO1)C(N)=O` (stereo not shown) [CBK305935] stands 99.6%; under `Cc1cc(NC(=O)CN(C)C(=O)c2cnc(Cl)c(Cl)c2)no1` [CBK306132], 101%; under `c1csc(C2Nc3ccccc3C3=NCCCN32)c1` (stereo not shown) [CBK284489], 99.2%. Turning to `O=C(Cn1cnc2c(c1=O)CCCC2)Nc1ccc(Cl)c(Cl)c1` [CBK304655], the viability at 28.5 h, 10 µM came out at 102%. For the compound `Cc1ncsc1CCC(=O)NCC1CCN(c2ccccc2F)C1` (stereo not shown) [CBK304675], the viability at 28.5 h, 10 µM is 96.5%. Still for that read-out and setting: the value for `CCC1=C(C)C(=O)N(C(=O)NCCc2ccc(S(=O)(=O)NC(=O)NC3CCC(C)CC3)cc2)C1` (stereo not shown) [CBK011561] was 93.2%; that for `O=C(Cc1c[nH]c2ccccc12)Nc1ccccc1N1CCNCC1` [CBK028288T] was 98.1%.

For `CC(=O)Nc1ccc(C(=O)N2CCNC(=O)C2Cc2ccccc2-c2cccc(C)c2)cc1` (stereo not shown) [CBK285837], the viability at 28.5 h, 10 µM stood at 106%.

In the case of `COCCc1noc(CC2CCN(c3ncc(C#N)cc3F)CC2)n1` [CBK304153], the viability at 28.5 h, 10 µM came to 115%. Take `Cc1nc(C2CCCN(C(=O)c3cscn3)C2)c2sccn12` (stereo not shown) [CBK282236]: the viability at 28.5 h, 10 µM came to 88.2%.

Take `CCCc1ccc(S(=O)(=O)Nc2c(C(=O)N(CC)CC)[nH]c3ccccc23)cc1` [CBK050111]: the viability at 28.5 h, 10 µM was 87.1%. Turning to `CC(=O)Nc1ccc(F)c(NC(=O)NCCC2CCCN2C)c1` (stereo not shown) [CBK304661], the viability at 28.5 h, 10 µM came out at 101%. `O=C1CC(C(=O)Nc2ccc(Cl)cc2)c2c(nc(SCc3ccccc3F)[nH]c2=O)N1` (stereo not shown) [CBK294437]: the viability at 28.5 h, 10 µM was determined as 93.6%. Same read-out and setting: under `CCN1CCN(C(=O)Cc2ccc(OC)cc2)C(Cc2ccc(-c3ccncc3)cc2)C1=O` (stereo not shown) [CBK285804] stands 106%. For the compound `CC(=O)c1ccc(-c2cc(C(=O)NCc3cccc(C(F)(F)F)c3)cnc2-c2ccccc2)s1` [CBK036641], the viability at 28.5 h, 10 µM was determined as 90.1%.

As to `O=C1NC(=O)N(c2ccc3c(c2)OCO3)C(=O)/C1=C/c1ccc(OCc2cccc(C(=O)O)c2)cc1` [CBK263805], for the setting “bulk resorufin, single well”, the viability at 28.5 h, 10 µM came to 106%. On to `CC(=O)c1c(C)nn2c3ccccc3n(CCN3CCOCC3)c12` [CBK262709C], for which the viability at 28.5 h, 10 µM worked out at 115%. Same read-out and setting: under `CC(NC(=O)C1CCN(CCn2cnc3c2c(=O)n(C)c(=O)n3C)CC1)c1ccccc1` (stereo not shown) [CBK148624] stands 99.4%; under `CCOc1ccc(-n2c(C)cc(C(=O)NS(=O)(=O)c3ccc(C)cc3)c2C)cc1` [CBK296084], 90.1%. For the compound `c1ccc(Oc2cccc(CN3CCOCC3)c2)cc1` [CBK261870], the viability at 28.5 h, 10 µM worked out at 95.3%.

Consider `COc1ccc(CCNC(=O)N2CCN(CCc3ccccc3)CC2)cc1OC` [CBK158915], for which the viability at 28.5 h, 10 µM worked out at 102%.
